Experimental data as given in US10596160B2, “Compositions, methods and uses for the treatment of diabetes and related conditions by controlling blood glucose level” (PHARNEXT, priority 2012, dated 2020).
Entries after “also recorded” stand apart in the source; their conditions may differ.

What was measured:
[1] = test system: TNFα-induced insulin resistant 3T3-L1 differentiated adipocytes; test: Glucose uptake in TNFα-induced insulin resistant 3T3-L1 differentiated adipocytes; type: cell-based; conditions: for enhancement of glucose uptake: drug alone, vs non-treated insulin-resistant cells (TNFα); for enhancement of glucose uptake, combination experiment / enhancement of glucose uptake, combination with metformin: vs TNFα cells; for enhancement of glucose uptake, combination experiment: Dunnett's test; for enhancement of glucose uptake, combination with metformin: combined or alone at the same concentrations
Protocol: 3T3L1 fibroblasts were maintained in DMEM 4.5 g/L glucose supplemented with 5% calf serum donor, 5% newborn calf serum, 100 U/mL penicillin, and 100 μg/mL streptomycin at 37° C. under a 10% CO2 atmosphere. Cells were grown on 24-well plates at a density of 2560 cells/well in 0.5 mL of growth medium (DMEM 4.5 g/L glucose supplemented with 10% FCS, 100 U/mL penicillin, and 100 μg/mL streptomycin). […] Fresh media were replaced after two days.
Glucose uptake was measured by quantification of incorporated radiolabeled glucose, after an incubation step with 2-deoxy-D[1,2^3H] glucose for 5 min. Glucose uptake was arrested by two washing steps in ice-cold PBS 1×, then were solubilized in 0.1N NaOH for 30 min. Cell-associated radioactivity was then counted using a MicroBeta counter after adding 600 μL per well of scintillant (Optiphase SuperMix3).
In parallel, protein quantification was determined by a colorimetric assay derived from the Lowry method. Results are expressed in nmol of glucose incorporated/5 mn/mg of protein and in % of control or basal condition (100%).

[2] = test system: H-2 Kb mouse muscle cells; test: Glucose uptake in mouse muscle cells; type: cell-based; conditions: H-2 Kb cells, vs non-treated cells
Protocol: For differentiation in […], cells are switched to non-permissive culture conditions (37° C. in a humidified atmosphere of 95% air/5% CO2; DMEM 5.5 mM D-glucose supplemented with 2% FCS, 10% horse serum, 2% glutamine, 1% chicken embryo, 100 U/mL penicillin, and 100 μg/mL streptomycin).
For long-term effect evaluation, the day before glucose uptake assay, cells are incubated in DMEM 5.5 mM D-glucose supplemented with 10% horse serum, 2% SVF, 1% chicken embryo, and 2% glutamine in the presence of the tested molecules for 16 h. […]
For short-term effect evaluation, 4 hours prior to the glucose test, cells are washed and incubated in a serum-free medium (DMEM) containing 5.5 mM D-glucose and the tested molecules. Then glucose uptake is measured by incubation of the cells for 5-10 min with radiolabeled 2-deoxy-D-[1,2^3H] glucose in Krebs-Ringer HEPES buffer (KRBH; pH 7.4), 0.1% Bovine Serum Albumin (BSA), and fraction V (Sigma, A-4503). […] Cell-associated radioactivity is then counted and protein quantification is determined using the colorimetric Lowry method. Glucose uptake is estimated by measuring the radioactivity incorporated to the cells by a MicroBeta counter after adding 600 μL per well of scintillant (Optiphase SuperMix3).
Protein quantification is performed by a colorimetric assay derived from the Lowry method. […]

[3] = test system: beta pancreatic INS-1 cells; test: Prevention of beta cells apoptosis (ssDNA apoptosis detection kit); type: cell-based; design: concentration or dose not given beside the values; conditions: 1 h pre-incubation then 24 h in apoptotic conditions, drugs tested alone
Protocol: The beta pancreatic INS-1 cells have been selected for this study. The cells are cultured in complete medium, RPMI 1640 10 mM glucose supplemented with 1 mM sodium pyruvate, 50 μM 2-mercaptoethanol, 2 mM glutamine, 10 mM HEPES, 100 IU/mL penicillin, 100 μg/mL streptomycin and 10% heat-inactivated fetal calf serum (FCS), as described by Asfari et al. (23). INS-1 cells are plated (4.5×10^4 cells/well) in 96-well poly-ornithine coated plates and cultured at 37° C. in a humidified atmosphere of 95% air/5% CO2. The day after, cells are pre-incubated with the tested molecules for 1 h. Then, after a medium change, cells are cultured for 24 h in a medium containing the tested molecules and 30 mM glucose, 0.05 mM myristic acid, 25 ng/mL INF, 25 ng/mL TNF and 5 ng/mL IL.
The efficacy of compounds to prevent apoptosis is then evaluated by the highly specific apoptosis detection kit from Chemicon (Ref. APT225). This procedure is based on the detection of single-stranded DNA (ssDNA) which is a specific marker of apoptotic cells (24).
Results are expressed in optical density (OD) arbitrary unit and % of reduction of the apoptosis induced by apoptotic condition. Following a Dunnett t-test, all compounds showing a significant decrease in % of apoptotic cells compared to apoptotic control conditions are considered active.

[4] = test system: differentiated 3T3-L1 adipocyte cells; test: Glucose uptake in 3T3-L1 adipocyte cells; type: cell-based; conditions: 3T3-L1 cells
Protocol: 3T3-L1 preadipocyte cells were cultured in DMEM containing 1% penicillin-streptomycin (PS) and 10% bovine calf serum at 37° C. in a 5% CO2 atmosphere. […] Differentiation, as measured by the expression of adipogenic markers and the appearance of lipid droplets, usually reaches completion between days 4 and 8. Glucose uptake activity was analyzed by measuring the uptake of radiolabeled glucose. Differentiated 3T3-L1 adipocytes grown in 12-well plates were washed twice with serum-free DMEM and incubated for 2 h at 37° C. with 1 mL DMEM containing 0.1% BSA. […] Next, cells were incubated with or without drugs for different durations in order to evaluate their short-term and long-term effects. To evaluate their short-term effect, cells were incubated with drugs of the invention for 4 hours at 37° C. To evaluate the long-term effect of drugs of the invention, the day prior to the test, cells were pre-incubated with or without drugs for 16 h. The day after, prior to the test, cells were washed and incubated in the presence of the tested molecules for 4 h more. […] After 20 min, glucose uptake was terminated by washing the cells three times with cold PBS. The cells were lysed through incubation for 20 min at 37° C. with 0.7 mL of Triton X-100. Level of radioactivity in the cell lysates was determined using a scintillation counter. Protein quantification was performed by a colorimetric assay derived from the Lowry method.

[5] = test system: beta pancreatic INS-1 cells; test: Insulin secretion in response to glucose stimulation; type: cell-based, rat
Protocol: The cells are cultured in complete medium, RPMI 1640 10 mM glucose supplemented with 1 mM sodium pyruvate, 50 μM 2-mercaptoethanol, 2 mM glutamine, 10 mM HEPES, 100 IU/mL penicillin, 100 μg/mL streptomycin and 10% heat-inactivated fetal calf serum (FCS), as described by Asfari et al. (23). […] After 3 days of culture at 37° C. in a humidified atmosphere of 95% air/5% CO2, the medium is removed and cells are cultured for 16 h in a medium containing 5 mM glucose, 1% FCS (and the tested drugs for long-term evaluation).
The cells are washed again with KRBH and incubated for 1 h in KRBH 0.1% BSA containing 3.5 mM glucose and the tested molecules.
Standards, samples and controls are added to the appropriate wells with a horseradish peroxidase enzyme-labeled monoclonal antibody (conjugate). After incubation, the microplates are washed to remove unbound conjugate and a TMB substrate solution is added to react with the bound conjugate. Finally, after addition of a stop solution, the optical density is measured at 450 nm using a reference wavelength of 620 nm. The intensity of the yellow color is directly proportional to the amount of insulin within the samples.

hepatocytes = test: Glucose production by hepatic cells; type: cell-based, rat; conditions: 10 μM
Protocol: Hepatocytes are isolated from 24 h-fasted male Wistar rats (200-250 g body weight) by ex situ liver perfusion in the presence of collagenase. Cell viability is validated by a trypan blue exclusion test. […] After plating, the medium is removed and cells are cultured for 16 h in RPMI medium without glucose (supplemented with the tested drugs for long-term evaluation). The following day, hepatic glucose production is assessed in Krebs-Ringer Bicarbonate HEPES buffer (KRBH; pH 7.4) in the presence of the neoglucogenic substrates (lactate 10 mM and pyruvate 1 mM) and the tested molecules for 4 h (short-term).
Supernatants are collected and glucose concentrations are determined using a glucose oxidase kit (Instrumentation Laboratory 0018250840). In parallel, protein quantification is performed using the colorimetric Lowry method.
Results are expressed in nmol glucose/mg protein and % of control condition (KLP: KRBH containing lactate and pyruvate).

[6] = drugs combined at a dose as low as 3.3 nM, or used individually
[7] = drugs combined at a dose as low as 10 nM, or used individually
[8] = fenspiride 3.3 nM and metformin 100 μM

Cc1c(Cl)cccc1Nc1ccccc1C(=O)O [tolfenamic acid]
enhancement of glucose uptake ([1]; 10 nM): +127%
enhancement of glucose uptake ([1]; 100 nM): improvement
enhancement of glucose uptake ([1]; 1 μM): improvement
enhancement of glucose uptake, combination experiment [1, 6]: No significant effect
enhancement of glucose uptake, combination experiment [1, 7]: No significant effect

CN(C)C(=N)N=C(N)N [metformin]
enhancement of glucose uptake, combination with metformin [1, 8]: does not lead to any significant improvement; also recorded: No significant effect
enhancement of glucose uptake, combination with metformin ([1]; ifenprodil 3.3 nM and metformin 100 μM): does not lead to any significant improvement; also recorded: No significant effect

C=CCNc1nc(NCC=C)nc(N2CCN(C(c3ccc(F)cc3)c3ccc(F)cc3)CC2)n1 [almitrine]
enhancement of glucose uptake ([2]; short-term, 1 μM): +80%
Percentage of apoptosis reduction [3]: 103%
enhancement of glucose uptake ([4]; long-term, 1 μM): +69%

Nc1nc(N)c2nc(-c3ccccc3)c(N)nc2n1 [triamterene]
Percentage of apoptosis reduction [3]: 64%
enhancement of insulin secretion ([5]; short-term pre-treatment, 10 μM): +37%
enhancement of glucose uptake, combination experiment [1, 7]: No significant effect

CCN(CC)C(=O)N1CCN(C)CC1 [diethylcarbamazine]
Percentage of apoptosis reduction [3]: 44%

CO[C@]12C[C@@H](COC(=O)c3cncc(Br)c3)CN(C)[C@@H]1Cc1cn(C)c3cccc2c13 [nicergoline]
enhancement of glucose uptake ([2]; long-term, 10 μM): +28%
Percentage of apoptosis reduction [3]: 112%

CN1CCCC(n2nc(Cc3ccc(Cl)cc3)c3ccccc3c2=O)CC1 (stereo not shown) [azelastine]
Percentage of apoptosis reduction [3]: 81%
reduction of glucose production (hepatocytes; long-term): −36%

C[C@@H](NCCCc1cccc(C(F)(F)F)c1)c1cccc2ccccc12 [cinacalcet]
Percentage of apoptosis reduction [3]: 167%
enhancement of insulin secretion ([5]; long-term pre-treatment, 1 μM): +55%

Cc1cccc(Nc2ccncc2S(=O)(=O)NC(=O)NC(C)C)c1 [torasemide]
Percentage of apoptosis reduction [3]: 67%
enhancement of glucose uptake ([1]; 0.37 nM): +121%
enhancement of glucose uptake ([1]; 1 nM): +123%
enhancement of glucose uptake ([1]; 3.3 nM): +129%

CN(C)CC[C@@H](c1ccc(Br)cc1)c1ccccn1 [dexbrompheniramine]
Percentage of apoptosis reduction [3]: 76%

O=C1NCC2(CCN(CCc3ccccc3)CC2)O1 [fenspiride]
enhancement of glucose uptake ([1]; 0.37 nM): improvement
enhancement of glucose uptake ([1]; 1 nM): +130%
enhancement of glucose uptake ([1]; 3.3 nM): improvement
enhancement of glucose uptake, combination experiment [1, 6]: No significant effect
enhancement of glucose uptake, combination experiment [1, 7]: No significant effect
enhancement of glucose uptake, combination with metformin [1, 8]: does not lead to any significant improvement; also recorded: No significant effect

c1cnc(N2CCN(Cc3ccc4c(c3)OCO4)CC2)nc1 [piribedil]
enhancement of glucose uptake ([4]; short-term, 10 nM): +68%

O=C[C@@H](O)[C@@H](O)[C@H](O)[C@H](O)CO [D-mannose]
Percentage of apoptosis reduction [3]: 129%
reduction of glucose production (hepatocytes; short-term): −22%

NCC(CC(=O)O)c1ccc(Cl)cc1 (racemic) [baclofen]
Percentage of apoptosis reduction [3]: 84%

CCN(CC)CCOCCOC(=O)C1(c2ccccc2)CCCC1 [carbetapentane]
Percentage of apoptosis reduction [3]: 103%
enhancement of glucose uptake ([4]; short-term, 0.1 μM (100 nM)): +58%

C[C@@H]1CC(=O)NN=C1c1ccc(NN=C(C#N)C#N)cc1 [levosimendan]
Percentage of apoptosis reduction [3]: 118%

Cc1ccc(C(=O)C(C)CN2CCCCC2)cc1 (stereo not shown) [tolperisone]
Percentage of apoptosis reduction [3]: 78%

Cc1cccc(C)c1OCC(C)N (stereo not shown) [mexiletine]
Percentage of apoptosis reduction [3]: 74%
